Values of other authors, collected in patent US20130122091A1, “POLYDEOXYRIBONUCLEOTIDE-BASED COMPOSITIONS AND THEIR METHODS OF USE” (MEDESTEA INTERNAZIONALE SPA, priority 2010, published 2013).

What was measured:
[1] = PDRN-treated survivors, versus 2% of non-PDRN-treated survivors

polydeoxyribonucleotides [PDRNs]
increase in the number of fibroblasts (fibroblasts): 35% | increase in the production of all the dermal matrix components (fibroblasts): 30% | Resolution of the serious hepatic veno-occlusive disease [1]: 42%
